The data set has as its target Potassium voltage-gated channel subfamily H member 2 (Homo sapiens, UniProt Q12809). Nature of the data set: Test for hERG Potassium Ion Channel. The text has this: Experimental method: in CHO (Chinese Hamster Ovary) cells stably expressing hERG potassium channel, the whole cell patch-clamp technique was used to record hERG potassium channel current at room temperature. The glass microelectrode was made of a glass electrode blank (BF150-86-10, Sutter) by a puller. The tip resistance after filling the liquid in the electrode was about 2-5 MΩ. The glass microelectrode can be connected to the patch-clamp amplifier by inserting the glass microelectrode into an amplifier probe. The clamping voltage and data recording were controlled and recorded by the pClamp 10 software through a computer. The sampling frequency was 10 kHz, and the filtering frequency was 2 kHz. After the whole cell records were obtained, the cells were clamped at −80 mV, and the step voltage that induced the hERG potassium current (IhERG) was depolarized from −80 mV to +20 mV for 2 s, then repolarized to −50 mV, and returned to −80 mV after 1 s. This voltage stimulation was given every 10 s, and the administration process was started after the hERG potassium current was confirmed to be stable (at least 1 minute). The compound was administered for at least 1 minute at each test concentration, and at least 2 cells (n≥2) were tested at each concentration.

Structures are written as SMILES. pIC50: −log10 of the molar value. Where only a bound is given, the exact number is not on record here.

Chain of Potassium voltage-gated channel subfamily H member 2 (Q12809 whole entry): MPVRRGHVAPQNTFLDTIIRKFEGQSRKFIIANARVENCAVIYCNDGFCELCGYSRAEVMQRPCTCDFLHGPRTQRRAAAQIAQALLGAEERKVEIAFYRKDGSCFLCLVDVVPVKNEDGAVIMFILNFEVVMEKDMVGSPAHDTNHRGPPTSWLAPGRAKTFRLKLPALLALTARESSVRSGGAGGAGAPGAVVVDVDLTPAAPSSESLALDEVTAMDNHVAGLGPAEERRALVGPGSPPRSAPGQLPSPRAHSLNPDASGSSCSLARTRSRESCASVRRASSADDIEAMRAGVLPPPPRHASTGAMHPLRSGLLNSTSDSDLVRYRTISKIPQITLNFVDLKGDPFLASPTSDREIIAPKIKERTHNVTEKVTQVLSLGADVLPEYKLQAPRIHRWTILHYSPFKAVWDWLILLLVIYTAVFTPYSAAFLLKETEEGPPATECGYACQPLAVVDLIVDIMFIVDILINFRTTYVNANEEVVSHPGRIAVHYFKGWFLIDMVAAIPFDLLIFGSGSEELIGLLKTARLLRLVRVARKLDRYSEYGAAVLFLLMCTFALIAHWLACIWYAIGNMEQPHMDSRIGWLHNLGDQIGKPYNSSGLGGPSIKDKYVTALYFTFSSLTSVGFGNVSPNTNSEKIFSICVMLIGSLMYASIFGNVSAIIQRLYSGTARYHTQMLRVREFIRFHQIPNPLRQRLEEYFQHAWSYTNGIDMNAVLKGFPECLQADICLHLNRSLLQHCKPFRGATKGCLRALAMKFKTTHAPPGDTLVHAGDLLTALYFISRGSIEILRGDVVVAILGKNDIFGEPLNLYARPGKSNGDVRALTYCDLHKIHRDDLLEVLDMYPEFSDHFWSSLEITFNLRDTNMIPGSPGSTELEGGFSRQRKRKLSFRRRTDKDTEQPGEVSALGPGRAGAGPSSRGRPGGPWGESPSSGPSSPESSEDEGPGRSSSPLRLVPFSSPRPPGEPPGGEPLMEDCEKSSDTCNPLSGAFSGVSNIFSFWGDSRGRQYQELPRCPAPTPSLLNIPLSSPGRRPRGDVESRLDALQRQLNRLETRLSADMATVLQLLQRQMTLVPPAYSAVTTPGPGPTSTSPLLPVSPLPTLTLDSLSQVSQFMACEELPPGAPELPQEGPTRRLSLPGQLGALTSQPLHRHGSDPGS

`CNC(=O)COc1cc2cc(Nc3nc(N4CCC(N5CCN(c6ccc(NC7CCC(=O)NC7=O)cc6F)CC5)C(F)(F)C4)ncc3Cl)ccc2n(C)c1=O` (stereo unspecified) [US20250333410, Compound 71] gave a pIC50 of less than 4.40.
As for `CC(=O)COc1cc2cc(Nc3nc(N4CCC(N5CCN(c6c(F)cc(C7CCC(=O)NC7=O)cc6F)CC5)C(F)(F)C4)ncc3Cl)ccc2n(C)c1=O` (stereo unspecified) [US20250333410, Compound 76], the pIC50 is less than 4.40.
The compound `CCC(=O)COc1cc2cc(Nc3nc(N4CCC(N5CCN(c6cccc7c(C8CCC(=O)NC8=O)nn(C)c67)CC5)C(F)(F)C4)ncc3Cl)ccc2n(C)c1=O` (stereo unspecified) [US20250333410, Compound 78] had a pIC50 of less than 4.40.
As to `CC(=O)COc1cc2cc(Nc3nc(N4CC[C@@H](N5CCN(c6ccc(N[C@H]7CCC(=O)NC7=O)cc6F)CC5)C(F)(F)C4)ncc3Cl)ccc2n(C)c1=O` [US20250333410, Compound 75], the pIC50 was less than 4.40.
As to `CNC(=O)COc1cc2cc(Nc3nc(N4CCN(CC5CCN(c6ccc7c8c(oc7c6)C(=O)N(C6CCC(=O)NC6=O)C8)CC5)CC4)ncc3Cl)ccc2n(C)c1=O` (stereo unspecified) [US20250333410, Compound 46], the pIC50 is less than 4.52.
In the case of `CNC(=O)COc1cc2cc(Nc3nc(N4CCC(CN5CCC(C6CCN(c7cccc8c(C9CCC(=O)NC9=O)nn(C)c78)CC6)CC5)CC4)ncc3Cl)ccc2n(C)c1=O` (stereo unspecified) [US20250333410, Compound 8], the pIC50 was less than 4.40.
In the case of `CNC(=O)COc1cc2cc(Nc3nc(N4CC[C@@H](N5CCN(c6ccc(N[C@@H]7CCC(=O)NC7=O)cc6F)CC5)C(F)(F)C4)ncc3Cl)ccc2n(C)c1=O` [US20250333410, Compound 72] it was less than 4.40; in that of `CNC(=O)COc1cc2cc(Nc3nc(N4CCC(N5CCN(c6cccc7c6n(C)c(=O)n7C6CCC(=O)NC6=O)CC5)C(F)(F)C4)ncc3Cl)ccc2n(C)c1=O` (stereo unspecified) [US20250333410, Compound 77], less than 4.40.
For `CNC(=O)COc1cc2cc(Nc3nc(N4CCC(CN5CCC(c6cccc7c6n(C)c(=O)n7C6CCC(=O)NC6=O)CC5)CC4)ncc3Cl)ccc2n(C)c1=O` (stereo unspecified) [US20250333410, Compound 35], the pIC50 was less than 4.52.
For `CNC(=O)COc1cc2cc(Nc3nc(N4CC[C@H](N5CCN(c6ccc(N[C@@H]7CCC(=O)NC7=O)cc6F)CC5)C(F)(F)C4)ncc3Cl)ccc2n(C)c1=O` [US20250333410, Compound 73], the negative-log IC50 (pIC50) was less than 4.40.
`CNC(=O)COc1cc2cc(Nc3nc(N4CCN(CC5CC6(CCN(c7scc8c7C(=O)N(C7CCC(=O)NC7=O)C8=O)CC6)C5)CC4)ncc3Cl)ccc2n(C)c1=O` (stereo unspecified) [US20250333410, Compound 67] gave a pIC50 of less than 4.40.

By pIC50 is commonly meant the IC50 on a negative log10 scale, so that one unit is a factor of ten.

The values are drawn from BindingDB's records for patent US20250333410 (Xizang Haisco Pharmaceutical, 2025).
